According to patent US3956487A, “Novel antifungal antibiotic substance, and agricultural and horticultural fungicidal composition containing said substance” (Nihon Tokushu Noyaku Seizo Kabushiki Kaisha, priority 1974, dated 1976):
In brackets after ≈: the same amount, converted by molar mass. Read-outs that look alike come from different tables or passages of the source.

Experiments:
Vibrio comma 904 = experiment: MIC, agar dilution method; format: cell-based
Xanthomonas citri = experiment: MIC, agar dilution method; format: cell-based
[1] = test system: Brown rot (Sclerotinia cineria); experiment: Field test on brown rot of peach; format: in vivo; settings: for Morbidity after 7 days since packaging: room temperature storage
From the text: Test on Brown rot (Sclerotinia cineria) of peach (field test):
Both the morbidity upon harvest and morbidity of the fruit packed in a cardboard box for storage at room temperature were investigated.

[2] = test system: Staphylococcus aureus FDA 209 p
[3] = test system: Bacillus subtilis PCI 219
Sclerotinia cinerea [4] = settings: 72 hours
Botorytis cinerea = settings: 48 hours
Sclerotinia cinerea [5] = settings: 200 mcg/ml solution, 2 days at 27°C
Mice = settings: for LD50: mice; for No abnormality (dose): mouse, in vivo
[6] = not given; remark: listed apart in the source
Sclerotinia rot fungus [7] = settings: curative, 48 hours
crops = settings: ordinary dosages
Gray mold fungus [8] = experiment: Curative test on gray mold of bean leaves; settings: 48 hours
Gray mold fungus [9] = experiment: Preventive test on gray mold of bean leaves
Sclerotinia rot fungus [10] = experiment: Preventive test on sclerotinia rot of bean leaves
[11] = 50 ppm, sprayed twice, 7-day interval

## CC(N)C(=O)NC1COC(O)C(N)C1O (stereo not shown)
Vibrio comma 904; 24 hours
  minimum inhibitory concentration (MIC): 12.5 µg/mL (≈ 57 µM)
Vibrio comma 904; 48 hours
  minimum inhibitory concentration (MIC): 100 µg/mL (≈ 456 µM)
Xanthomonas citri; 48 hours
  minimum inhibitory concentration (MIC): > 100 µg/mL
Xanthomonas citri; 72 hours
  minimum inhibitory concentration (MIC): > 100 µg/mL
[1]; [11]
  Morbidity upon harvest: 0
  Morbidity after 7 days since packaging: 0
[2]; 24 hours
  minimum inhibitory concentration (MIC): > 100 µg/mL
[2]; 48 hours
  minimum inhibitory concentration (MIC): > 100 µg/mL
Sarcina lutea PCI 1001; 24 hours
  minimum inhibitory concentration (MIC): 3.12 µg/mL (≈ 14.2 µM)
Sarcina lutea PCI 1001; 48 hours
  minimum inhibitory concentration (MIC): 3.12 µg/mL (≈ 14.2 µM)
[3]; 24 hours
  minimum inhibitory concentration (MIC): > 100 µg/mL
[3]; 48 hours
  minimum inhibitory concentration (MIC): > 100 µg/mL
Mycobacterium ATCC 607; 24 hours
  minimum inhibitory concentration (MIC): > 100 µg/mL
Mycobacterium ATCC 607; 48 hours
  minimum inhibitory concentration (MIC): > 100 µg/mL
Escherichia coli NIHJ; 24 hours
  minimum inhibitory concentration (MIC): 100 µg/mL (≈ 456 µM)
Escherichia coli NIHJ; 48 hours
  minimum inhibitory concentration (MIC): > 100 µg/mL
Candida albicans; 48 hours
  minimum inhibitory concentration (MIC): > 100 µg/mL
Candida albicans; 72 hours
  minimum inhibitory concentration (MIC): > 100 µg/mL
Saccharomyces cerevisiae; 48 hours
  minimum inhibitory concentration (MIC): > 100 µg/mL
Saccharomyces cerevisiae; 72 hours
  minimum inhibitory concentration (MIC): > 100 µg/mL
Holmodendrum pedrosei; 48 hours
  minimum inhibitory concentration (MIC): 25 µg/mL (≈ 114 µM)
Holmodendrum pedrosei; 72 hours
  minimum inhibitory concentration (MIC): 25 µg/mL (≈ 114 µM)
Trichophyton rubrum; 48 hours
  minimum inhibitory concentration (MIC): 100 µg/mL (≈ 456 µM)
Trichophyton rubrum; 72 hours
  minimum inhibitory concentration (MIC): > 100 µg/mL
Ophiobolus miyabianus; 48 hours
  minimum inhibitory concentration (MIC): 25 µg/mL (≈ 114 µM)
Ophiobolus miyabianus; 72 hours
  minimum inhibitory concentration (MIC): 25 µg/mL (≈ 114 µM)
Aspergillus niger; 48 hours
  minimum inhibitory concentration (MIC): > 100 µg/mL
Aspergillus niger; 72 hours
  minimum inhibitory concentration (MIC): > 100 µg/mL
Xanthomonas oryzae; 48 hours
  minimum inhibitory concentration (MIC): 50 µg/mL (≈ 228 µM)
Xanthomonas oryzae; 72 hours
  minimum inhibitory concentration (MIC): 100 µg/mL (≈ 456 µM)
Alternaria japonica; 48 hours
  minimum inhibitory concentration (MIC): 50 µg/mL (≈ 228 µM)
Alternaria japonica; 72 hours
  minimum inhibitory concentration (MIC): 50 µg/mL (≈ 228 µM)
Alternaria kikuchiana; 48 hours
  minimum inhibitory concentration (MIC): > 100 µg/mL
Alternaria kikuchiana; 72 hours
  minimum inhibitory concentration (MIC): > 100 µg/mL
Sclerotinia cinerea [4]
  minimum inhibitory concentration (MIC): 25 µg/mL (≈ 114 µM)
Sclerotinia sclerotiorum; 48 hours
  minimum inhibitory concentration (MIC): 1.56 µg/mL (≈ 7.12 µM)
Sclerotinia sclerotiorum; 72 hours
  minimum inhibitory concentration (MIC): 3.12 µg/mL (≈ 14.2 µM)
Botorytis fabae; 48 hours
  minimum inhibitory concentration (MIC): 6.25 µg/mL (≈ 28.5 µM)
Botorytis fabae; 72 hours
  minimum inhibitory concentration (MIC): 25 µg/mL (≈ 114 µM)
Botorytis cinerea
  minimum inhibitory concentration (MIC): 6.25 µg/mL (≈ 28.5 µM)
Sclerotinia cinerea [5]
  inhibition zone diameter: about 35 mm
Mice; intravenous injection
  LD50: 160 mg/kg
Mice; oral administration
  LD50: 750 mg/kg
Mice; iv
  No abnormality (dose): 125 mg/kg
Mice; po
  No abnormality (dose): 500 mg/kg
Young carp
  no trouble (concentration): 250 ppm
Dimethyl sulfoxide
  Solubility in dimethyl sulfoxide: Soluble
ethanol
  Solubility in ethanol: sparingly soluble
methanol
  Solubility in methanol: Soluble
[6]; allowed to stand for a long time
  stability on standing: activity became lower and it coloured in yellow
[6]; in an acidic solution
  retention of activity: retains its activity
[6]; in the form of aqueous solution
  stability: very stable
[6]; solution neutral to alkaline
  retention of activity: activity is reduced
Sclerotinia rot fungus [7]; 50 ppm
  Diameter of the disease spot after spraying: 19.6 mm
  Disease spot inhibiting rate: 62%
Sclerotinia rot fungus [7]; 100 ppm
  Diameter of the disease spot after spraying: 16.3 mm
  Disease spot inhibiting rate: 76%
crops
  phytotoxicity to crops: does not give phytotoxicity to crops
Various bacteria
  antibacterial action: only weak antibacterial action
Gray mold fungus [8]; 25 ppm
  Diameter of the disease spot after spraying: 19.3 mm
  Disease spot inhibiting rate: 59%
Gray mold fungus [8]; 50 ppm
  Diameter of the disease spot after spraying: 17.0 mm
  Disease spot inhibiting rate: 75%
Gray mold fungus [8]; 100 ppm
  Diameter of the disease spot after spraying: 16.3 mm
  Disease spot inhibiting rate: 81%

## CC(N)C(=O)NC1COC(O)C(N)C1O.Cl (stereo not shown)
Gray mold fungus [9]; 25 ppm
  Diameter of disease spot: 23 mm
  Disease spot inhibiting rate: 23%
Gray mold fungus [9]; 50 ppm
  Diameter of disease spot: 10 mm
  Disease spot inhibiting rate: 67%
Sclerotinia rot fungus [10]; 25 ppm
  Diameter of disease spot: 10 mm
  Disease spot inhibiting rate: 71%
Sclerotinia rot fungus [10]; 50 ppm
  Diameter of disease spot: 0 mm
  Disease spot inhibiting rate: 100%

## CCCCNC(=O)n1c(NC(=O)OC)nc2ccccc21 [BENLATE, methyl-1-(butylcarbamoyl)-2-benzimidazole carbamate]
[1]; 50% product × 1000
  Morbidity upon harvest: 0.3
  Morbidity after 7 days since packaging: 46.1

## CC1(C)OC(=O)N(c2cc(Cl)cc(Cl)c2)C1=O [Sclex, 3-(3,5-dichlorophenyl)-5,5-dimethyloxazolidinedione-2,4]
[1]; 20% product × 1500
  Morbidity upon harvest: 0.03
  Morbidity after 7 days since packaging: 7.7
Gray mold fungus [8]; 20% product × 1000 (200 ppm)
  Diameter of the disease spot after spraying: 17.7 mm
  Disease spot inhibiting rate: 61%
